Measured values: the supplement of paper PMC10307832

What was measured:
Assay in all cases: relative viability (nuclei count vs DMSO), 5 days (fraction); higher = more cells survive
ALW-II-49-7 + Tozasertib = compound: Cc1ccc(C(=O)Nc2cccc(C(F)(F)F)c2)cc1Nc1cncc(C(N)=O)c1 [ALW-II-49-7] + Cc1cc(Nc2cc(N3CCN(C)CC3)nc(Sc3ccc(NC(=O)C4CC4)cc3)n2)n[nH]1 [Tozasertib] (partner 0.1 µM)
Outline: (§1)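 After 5 days of treatment, lung cancer cells in 1536-well plates were fixed and stained in a single step (final 0.05% Triton X-100, 1% formaldehyde, 1 ug/ml Hoechst) and their nuclei counted on 4× images. Treatment had been applied by pin tool the day after seeding as one drug alone or as a fixed anchor-drug dose with five library-drug doses (not always all listed) in √10 steps. Relative viability is the nuclei count of treated wells divided by that of vehicle wells, and values are medians of duplicate plates.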

Dasatinib + Vorinostat = compound: Cc1nc(Nc2ncc(C(=O)Nc3c(C)cccc3Cl)s2)cc(N2CCN(CCO)CC2)n1 [Dasatinib] + O=C(CCCCCCC(=O)Nc1ccccc1)NO [Vorinostat] (partner 1 µM)
Outline: as §1

ALW-II-49-7 + Crizotinib = compound: Cc1ccc(C(=O)Nc2cccc(C(F)(F)F)c2)cc1Nc1cncc(C(N)=O)c1 [ALW-II-49-7] + C[C@@H](Oc1cc(-c2cnn(C3CCNCC3)c2)cnc1N)c1c(Cl)ccc(F)c1Cl [Crizotinib] (partner 1 µM)
Outline: as §1

Dasatinib + Bortezomib = compound: Cc1nc(Nc2ncc(C(=O)Nc3c(C)cccc3Cl)s2)cc(N2CCN(CCO)CC2)n1 [Dasatinib] + CC(C)C[C@H](NC(=O)[C@H](Cc1ccccc1)NC(=O)c1cnccn1)B(O)O [Bortezomib] (partner 0.002 µM)
Outline: as §1

Cell Line LU99A has a relative viability (ALW-II-49-7 + Tozasertib; first compound 0.08 µM) of 0.273, a relative viability (ALW-II-49-7 + Tozasertib; first compound 0.253 µM) of 0.29 and a relative viability (ALW-II-49-7 + Tozasertib; first compound 0.8 µM) of 0.252. The relative viability (ALW-II-49-7 + Tozasertib; first compound 2.53 µM) was 0.269, the relative viability (ALW-II-49-7 + Tozasertib; first compound 8 µM) was 0.249 and the relative viability (Dasatinib + Vorinostat; first compound 0.005 µM) was 0.464. For the same cell line, the relative viability (Dasatinib + Vorinostat; first compound 0.01581 µM) was 0.448, the relative viability (Dasatinib + Vorinostat; first compound 0.05 µM) was 0.515 and the relative viability (Dasatinib + Vorinostat; first compound 0.1581 µM) was 0.366. It also gave a relative viability (Dasatinib + Vorinostat; first compound 0.5 µM) of 0.288, a relative viability (ALW-II-49-7 + Crizotinib; first compound 0.08 µM) of 0.535 and a relative viability (ALW-II-49-7 + Crizotinib; first compound 0.253 µM) of 0.508. The relative viability (ALW-II-49-7 + Crizotinib; first compound 0.8 µM) was 0.521, the relative viability (ALW-II-49-7 + Crizotinib; first compound 2.53 µM) was 0.604 and the relative viability (ALW-II-49-7 + Crizotinib; first compound 8 µM) was 0.546. It also gave a relative viability (Dasatinib + Bortezomib; first compound 0.005 µM) of 1.11, a relative viability (Dasatinib + Bortezomib; first compound 0.01581 µM) of 0.973 and a relative viability (Dasatinib + Bortezomib; first compound 0.05 µM) of 1.03. It also gave a relative viability (Dasatinib + Bortezomib; first compound 0.1581 µM) of 0.812 and a relative viability (Dasatinib + Bortezomib; first compound 0.5 µM) of 0.573.

For NCI-H441, the relative viability (ALW-II-49-7 + Tozasertib; first compound 0.08 µM) was 0.709, the relative viability (ALW-II-49-7 + Tozasertib; first compound 0.253 µM) was 0.512 and the relative viability (ALW-II-49-7 + Tozasertib; first compound 0.8 µM) was 0.751. The relative viability (ALW-II-49-7 + Tozasertib; first compound 2.53 µM) was 0.54, the relative viability (ALW-II-49-7 + Tozasertib; first compound 8 µM) was 0.478 and the relative viability (Dasatinib + Vorinostat; first compound 0.005 µM) was 0.778. The relative viability (Dasatinib + Vorinostat; first compound 0.01581 µM) was 0.651, the relative viability (Dasatinib + Vorinostat; first compound 0.05 µM) was 0.887 and the relative viability (Dasatinib + Vorinostat; first compound 0.1581 µM) was 0.813. The relative viability (Dasatinib + Vorinostat; first compound 0.5 µM) was 0.581, the relative viability (ALW-II-49-7 + Crizotinib; first compound 0.08 µM) was 0.772 and the relative viability (ALW-II-49-7 + Crizotinib; first compound 0.253 µM) was 0.714. For the same cell line, the relative viability (ALW-II-49-7 + Crizotinib; first compound 0.8 µM) was 0.676, the relative viability (ALW-II-49-7 + Crizotinib; first compound 2.53 µM) was 0.598 and the relative viability (ALW-II-49-7 + Crizotinib; first compound 8 µM) was 0.625. The relative viability (Dasatinib + Bortezomib; first compound 0.005 µM) was 0.487, the relative viability (Dasatinib + Bortezomib; first compound 0.01581 µM) was 0.613 and the relative viability (Dasatinib + Bortezomib; first compound 0.05 µM) was 0.511. For the same cell line, the relative viability (Dasatinib + Bortezomib; first compound 0.1581 µM) was 0.734 and the relative viability (Dasatinib + Bortezomib; first compound 0.5 µM) was 0.172.

Cell Line NCI-H23 has a relative viability (ALW-II-49-7 + Tozasertib; first compound 0.08 µM) of 0.308, a relative viability (ALW-II-49-7 + Tozasertib; first compound 0.253 µM) of 0.553 and a relative viability (ALW-II-49-7 + Tozasertib; first compound 0.8 µM) of 0.337. The relative viability (ALW-II-49-7 + Tozasertib; first compound 2.53 µM) was 0.404, the relative viability (ALW-II-49-7 + Tozasertib; first compound 8 µM) was 0.363 and the relative viability (Dasatinib + Vorinostat; first compound 0.005 µM) was 0.519. For the same cell line, the relative viability (Dasatinib + Vorinostat; first compound 0.01581 µM) was 0.567, the relative viability (Dasatinib + Vorinostat; first compound 0.05 µM) was 0.512 and the relative viability (Dasatinib + Vorinostat; first compound 0.1581 µM) was 0.349. For the same cell line, the relative viability (Dasatinib + Vorinostat; first compound 0.5 µM) was 0.314, the relative viability (ALW-II-49-7 + Crizotinib; first compound 0.08 µM) was 0.419 and the relative viability (ALW-II-49-7 + Crizotinib; first compound 0.253 µM) was 0.475. The relative viability (ALW-II-49-7 + Crizotinib; first compound 0.8 µM) was 0.493, the relative viability (ALW-II-49-7 + Crizotinib; first compound 2.53 µM) was 0.598 and the relative viability (ALW-II-49-7 + Crizotinib; first compound 8 µM) was 0.509. For the same cell line, the relative viability (Dasatinib + Bortezomib; first compound 0.005 µM) was 0.958, the relative viability (Dasatinib + Bortezomib; first compound 0.01581 µM) was 0.812 and the relative viability (Dasatinib + Bortezomib; first compound 0.05 µM) was 0.904. It also gave a relative viability (Dasatinib + Bortezomib; first compound 0.1581 µM) of 0.677 and a relative viability (Dasatinib + Bortezomib; first compound 0.5 µM) of 0.519.

NCI-H647 gave a relative viability (ALW-II-49-7 + Tozasertib; first compound 0.08 µM) of 0.37, a relative viability (ALW-II-49-7 + Tozasertib; first compound 0.253 µM) of 0.409 and a relative viability (ALW-II-49-7 + Tozasertib; first compound 0.8 µM) of 0.204. The relative viability (ALW-II-49-7 + Tozasertib; first compound 2.53 µM) was 0.181, the relative viability (ALW-II-49-7 + Tozasertib; first compound 8 µM) was 0.177 and the relative viability (Dasatinib + Vorinostat; first compound 0.005 µM) was 0.674. It also gave a relative viability (Dasatinib + Vorinostat; first compound 0.01581 µM) of 0.49, a relative viability (Dasatinib + Vorinostat; first compound 0.05 µM) of 0.415 and a relative viability (Dasatinib + Vorinostat; first compound 0.1581 µM) of 0.149. The relative viability (Dasatinib + Vorinostat; first compound 0.5 µM) was 0.184, the relative viability (ALW-II-49-7 + Crizotinib; first compound 0.08 µM) was 1.07 and the relative viability (ALW-II-49-7 + Crizotinib; first compound 0.253 µM) was 1.4. The relative viability (ALW-II-49-7 + Crizotinib; first compound 0.8 µM) was 1.28, the relative viability (ALW-II-49-7 + Crizotinib; first compound 2.53 µM) was 0.776 and the relative viability (ALW-II-49-7 + Crizotinib; first compound 8 µM) was 0.67. The relative viability (Dasatinib + Bortezomib; first compound 0.005 µM) was 0.547, the relative viability (Dasatinib + Bortezomib; first compound 0.01581 µM) was 0.593 and the relative viability (Dasatinib + Bortezomib; first compound 0.05 µM) was 0.447. For the same cell line, the relative viability (Dasatinib + Bortezomib; first compound 0.1581 µM) was 0.257 and the relative viability (Dasatinib + Bortezomib; first compound 0.5 µM) was 0.189.

201T showed a relative viability (ALW-II-49-7 + Tozasertib; first compound 0.08 µM) of 0.886, a relative viability (ALW-II-49-7 + Tozasertib; first compound 0.253 µM) of 0.948 and a relative viability (ALW-II-49-7 + Tozasertib; first compound 0.8 µM) of 0.941. For the same cell line, the relative viability (ALW-II-49-7 + Tozasertib; first compound 2.53 µM) was 0.902, the relative viability (ALW-II-49-7 + Tozasertib; first compound 8 µM) was 0.92 and the relative viability (Dasatinib + Vorinostat; first compound 0.005 µM) was 0.912. The relative viability (Dasatinib + Vorinostat; first compound 0.01581 µM) was 0.723, the relative viability (Dasatinib + Vorinostat; first compound 0.05 µM) was 0.792 and the relative viability (Dasatinib + Vorinostat; first compound 0.1581 µM) was 0.649. The relative viability (Dasatinib + Vorinostat; first compound 0.5 µM) was 0.346, the relative viability (ALW-II-49-7 + Crizotinib; first compound 0.08 µM) was 1.04 and the relative viability (ALW-II-49-7 + Crizotinib; first compound 0.253 µM) was 1.08. It also gave a relative viability (ALW-II-49-7 + Crizotinib; first compound 0.8 µM) of 1.04, a relative viability (ALW-II-49-7 + Crizotinib; first compound 2.53 µM) of 1.06 and a relative viability (ALW-II-49-7 + Crizotinib; first compound 8 µM) of 1.04. For the same cell line, the relative viability (Dasatinib + Bortezomib; first compound 0.005 µM) was 1.04, the relative viability (Dasatinib + Bortezomib; first compound 0.01581 µM) was 0.938 and the relative viability (Dasatinib + Bortezomib; first compound 0.05 µM) was 1.01. It also gave a relative viability (Dasatinib + Bortezomib; first compound 0.1581 µM) of 0.982 and a relative viability (Dasatinib + Bortezomib; first compound 0.5 µM) of 0.623.

Work on NCI-H1734 yielded a relative viability (ALW-II-49-7 + Tozasertib; first compound 0.08 µM) of 0.263, a relative viability (ALW-II-49-7 + Tozasertib; first compound 0.253 µM) of 0.278 and a relative viability (ALW-II-49-7 + Tozasertib; first compound 0.8 µM) of 0.255. For the same cell line, the relative viability (ALW-II-49-7 + Tozasertib; first compound 2.53 µM) was 0.24, the relative viability (ALW-II-49-7 + Tozasertib; first compound 8 µM) was 0.232 and the relative viability (Dasatinib + Vorinostat; first compound 0.005 µM) was 0.721. The relative viability (Dasatinib + Vorinostat; first compound 0.01581 µM) was 0.71, the relative viability (Dasatinib + Vorinostat; first compound 0.05 µM) was 0.703 and the relative viability (Dasatinib + Vorinostat; first compound 0.1581 µM) was 0.529. For the same cell line, the relative viability (Dasatinib + Vorinostat; first compound 0.5 µM) was 0.496, the relative viability (ALW-II-49-7 + Crizotinib; first compound 0.08 µM) was 0.787 and the relative viability (ALW-II-49-7 + Crizotinib; first compound 0.253 µM) was 0.642. For the same cell line, the relative viability (ALW-II-49-7 + Crizotinib; first compound 0.8 µM) was 0.614, the relative viability (ALW-II-49-7 + Crizotinib; first compound 2.53 µM) was 0.762 and the relative viability (ALW-II-49-7 + Crizotinib; first compound 8 µM) was 0.651. The relative viability (Dasatinib + Bortezomib; first compound 0.005 µM) was 0.754, the relative viability (Dasatinib + Bortezomib; first compound 0.01581 µM) was 0.508 and the relative viability (Dasatinib + Bortezomib; first compound 0.05 µM) was 0.79. It also gave a relative viability (Dasatinib + Bortezomib; first compound 0.1581 µM) of 0.425 and a relative viability (Dasatinib + Bortezomib; first compound 0.5 µM) of 0.561.

In the case of NCI-H596, the relative viability (ALW-II-49-7 + Tozasertib; first compound 0.08 µM) is reported as 1.02, the relative viability (ALW-II-49-7 + Tozasertib; first compound 0.253 µM) is reported as 0.939 and the relative viability (ALW-II-49-7 + Tozasertib; first compound 0.8 µM) is reported as 0.92. For the same cell line, the relative viability (ALW-II-49-7 + Tozasertib; first compound 2.53 µM) was 0.782, the relative viability (ALW-II-49-7 + Tozasertib; first compound 8 µM) was 1.14 and the relative viability (Dasatinib + Vorinostat; first compound 0.005 µM) was 0.59. For the same cell line, the relative viability (Dasatinib + Vorinostat; first compound 0.01581 µM) was 0.384, the relative viability (Dasatinib + Vorinostat; first compound 0.05 µM) was 0.412 and the relative viability (Dasatinib + Vorinostat; first compound 0.1581 µM) was 0.313. For the same cell line, the relative viability (Dasatinib + Vorinostat; first compound 0.5 µM) was 0.322, the relative viability (ALW-II-49-7 + Crizotinib; first compound 0.08 µM) was 0.892 and the relative viability (ALW-II-49-7 + Crizotinib; first compound 0.253 µM) was 0.911. The relative viability (ALW-II-49-7 + Crizotinib; first compound 0.8 µM) was 0.978, the relative viability (ALW-II-49-7 + Crizotinib; first compound 2.53 µM) was 0.997 and the relative viability (ALW-II-49-7 + Crizotinib; first compound 8 µM) was 1.07. It also gave a relative viability (Dasatinib + Bortezomib; first compound 0.005 µM) of 0.928, a relative viability (Dasatinib + Bortezomib; first compound 0.01581 µM) of 0.815 and a relative viability (Dasatinib + Bortezomib; first compound 0.05 µM) of 0.826. For the same cell line, the relative viability (Dasatinib + Bortezomib; first compound 0.1581 µM) was 0.525 and the relative viability (Dasatinib + Bortezomib; first compound 0.5 µM) was 0.515.
